According to ChEMBL document CHEMBL3885881, “DrugMatrix”:

Species: Rattus norvegicus
Test: DrugMatrix - Regimen: Daily Repeat
Assay type: toxicity, organism-based, Sprague-Dawley
Design: regimen Daily Repeat, gender Male, age 6-8 weeks
Conditions: in vivo, po, route oral GAVAGE, vehicle .5 % CMC; for CARBON DIOXIDE / CHLORIDE / CHOLESTEROL / CREATINE PHOSPHOKINASE / CREATININE / GLUCOSE / LACTATE DEHYDROGENASE / LIPASE / PHOSPHORUS / POTASSIUM / SODIUM / TOTAL BILIRUBIN / TOTAL PROTEIN / URIC ACID / ALANINE AMINOTRANSFERASE / ALBUMIN / ALKALINE PHOSPHATASE / ASPARTATE AMINOTRANSFERASE / BLOOD UREA NITROGEN: tissue Plasma; for ABSOLUTE BASOPHIL / ABSOLUTE EOSINOPHIL / ABSOLUTE LYMPHOCYTE / ABSOLUTE MONOCYTE / ABSOLUTE SEGMENTED NEUTROPHIL / BASOPHIL / EOSINOPHIL / ERYTHROCYTE COUNT / HEMATOCRIT / HEMOGLOBIN / LEUKOCYTE COUNT / LYMPHOCYTE / MEAN CORPUSCULAR HEMOGLOBIN / MEAN CORPUSCULAR HEMOGLOBIN CONCENTRATION / MEAN CORPUSCULAR VOLUME / MONOCYTE / NEUTROPHIL / NUCLEATED RED BLOOD CELLS / PLATELET COUNT: tissue Blood
[1] = 7 mg/kg, 120 h, dose level Low, time 5 day
[2] = 70 mg/kg, 72 h, dose level High, time 3 day
[3] = 70 mg/kg, 120 h, dose level High, time 5 day
[4] = 140 mg/kg, 72 h, dose level Low, time 3 day

NC1=NC(=O)C(c2ccccc2)O1 (configuration not stated) [PEMOLINE]
CARBON DIOXIDE [1]: 34.67 mmol/L
CHLORIDE [1]: 103 MEQ/L
CHOLESTEROL [1]: 67.67 mg/dL
CREATINE PHOSPHOKINASE [1]: 147.33 u/L
CREATININE [1]: 0.12 mg/dL
GLUCOSE [1]: 151.67 mg/dL
LACTATE DEHYDROGENASE [1]: 92.33 u/L
LIPASE [1]: 9 u/L
PHOSPHORUS [1]: 13.57 mg/dL
POTASSIUM [1]: 6.78 MEQ/L
SODIUM [1]: 146.93 MEQ/L
TOTAL BILIRUBIN [1]: 0.17 mg/dL
TOTAL PROTEIN [1]: 5.77 G/DL
URIC ACID [1]: 1.33 mg/dL
ABSOLUTE BASOPHIL [2]: 0 CELLS/uL
ABSOLUTE EOSINOPHIL [2]: 0 CELLS/uL
ABSOLUTE LYMPHOCYTE [2]: 14699.33 CELLS/uL
ABSOLUTE MONOCYTE [2]: 90.67 CELLS/uL
ABSOLUTE SEGMENTED NEUTROPHIL [2]: 1243.33 CELLS/uL
BASOPHIL [2]: 0%
EOSINOPHIL [2]: 0%
ERYTHROCYTE COUNT [2]: 5.56 x10E6/uL
HEMATOCRIT [2]: 35.23%
HEMOGLOBIN [2]: 14.27 G/DL
LEUKOCYTE COUNT [2]: 16.03 x10E3/uL
LYMPHOCYTE [2]: 91.33%
MEAN CORPUSCULAR HEMOGLOBIN [2]: 25.7 pg
MEAN CORPUSCULAR HEMOGLOBIN CONCENTRATION [2]: 40.47 G/DL
MEAN CORPUSCULAR VOLUME [2]: 63.43 fL
MONOCYTE [2]: 0.67%
NEUTROPHIL [2]: 8%
NUCLEATED RED BLOOD CELLS [2]: 0 /100WBC
PLATELET COUNT [2]: 1042 x10E3/uL
ALANINE AMINOTRANSFERASE [2]: 48 u/L
ALBUMIN [2]: 4.17 G/DL
ALKALINE PHOSPHATASE [2]: 389 u/L
ASPARTATE AMINOTRANSFERASE [2]: 92.67 u/L
BLOOD UREA NITROGEN [2]: 15.33 mg/dL
CARBON DIOXIDE [2]: 33 mmol/L
CHLORIDE [2]: 100.67 MEQ/L
CHOLESTEROL [2]: 58.33 mg/dL
CREATINE PHOSPHOKINASE [2]: 270 u/L
CREATININE [2]: 0.15 mg/dL
GLUCOSE [2]: 154 mg/dL
LACTATE DEHYDROGENASE [2]: 211.33 u/L
LIPASE [2]: 8.67 u/L
PHOSPHORUS [2]: 13.6 mg/dL
POTASSIUM [2]: 6.81 MEQ/L
SODIUM [2]: 144.87 MEQ/L
TOTAL BILIRUBIN [2]: 0.1 mg/dL
TOTAL PROTEIN [2]: 5.8 G/DL
URIC ACID [2]: 1.6 mg/dL
ABSOLUTE BASOPHIL [3]: 0 CELLS/uL
ABSOLUTE EOSINOPHIL [3]: 0 CELLS/uL
ABSOLUTE LYMPHOCYTE [3]: 16458 CELLS/uL
ABSOLUTE MONOCYTE [3]: 255.33 CELLS/uL
ABSOLUTE SEGMENTED NEUTROPHIL [3]: 886.67 CELLS/uL
BASOPHIL [3]: 0%
EOSINOPHIL [3]: 0%
ERYTHROCYTE COUNT [3]: 5.79 x10E6/uL
HEMATOCRIT [3]: 36.57%
HEMOGLOBIN [3]: 14.87 G/DL
LEUKOCYTE COUNT [3]: 17.6 x10E3/uL
LYMPHOCYTE [3]: 93%
MEAN CORPUSCULAR HEMOGLOBIN [3]: 25.7 pg
MEAN CORPUSCULAR HEMOGLOBIN CONCENTRATION [3]: 40.63 G/DL
MEAN CORPUSCULAR VOLUME [3]: 63.23 fL
MONOCYTE [3]: 1.67%
NEUTROPHIL [3]: 5.33%
NUCLEATED RED BLOOD CELLS [3]: 0.33 /100WBC
PLATELET COUNT [3]: 1251.67 x10E3/uL
ALANINE AMINOTRANSFERASE [3]: 59.67 u/L
ALBUMIN [3]: 4.33 G/DL
ALKALINE PHOSPHATASE [3]: 378.67 u/L
ASPARTATE AMINOTRANSFERASE [3]: 96.33 u/L
BLOOD UREA NITROGEN [3]: 18.67 mg/dL
CARBON DIOXIDE [3]: 33.33 mmol/L
CHLORIDE [3]: 100.33 MEQ/L
CHOLESTEROL [3]: 64 mg/dL
CREATINE PHOSPHOKINASE [3]: 276.33 u/L
CREATININE [3]: 0.23 mg/dL
GLUCOSE [3]: 139 mg/dL
LACTATE DEHYDROGENASE [3]: 306.33 u/L
LIPASE [3]: 10.67 u/L
PHOSPHORUS [3]: 12.97 mg/dL
POTASSIUM [3]: 6.82 MEQ/L
SODIUM [3]: 144.9 MEQ/L
TOTAL BILIRUBIN [3]: 0.2 mg/dL
TOTAL PROTEIN [3]: 6.03 G/DL
URIC ACID [3]: 1.9 mg/dL
BASOPHIL [4]: 0%
EOSINOPHIL [4]: 1%
ERYTHROCYTE COUNT [4]: 6.27 x10E6/uL
HEMATOCRIT [4]: 38.3%
HEMOGLOBIN [4]: 14.3 G/DL
LEUKOCYTE COUNT [4]: 13.1 x10E3/uL
LYMPHOCYTE [4]: 92%
MEAN CORPUSCULAR HEMOGLOBIN [4]: 22.8 pg
MEAN CORPUSCULAR HEMOGLOBIN CONCENTRATION [4]: 37.3 G/DL
MEAN CORPUSCULAR VOLUME [4]: 61.1 fL
MONOCYTE [4]: 1%
NEUTROPHIL [4]: 6%
PLATELET COUNT [4]: 1285 x10E3/uL
ALANINE AMINOTRANSFERASE [4]: 34.5 u/L
ALBUMIN [4]: 3.25 G/DL
ALKALINE PHOSPHATASE [4]: 286.5 u/L
ASPARTATE AMINOTRANSFERASE [4]: 93.5 u/L
BLOOD UREA NITROGEN [4]: 15.5 mg/dL
CHLORIDE [4]: 105.5 MEQ/L
CHOLESTEROL [4]: 58.5 mg/dL
CREATINE PHOSPHOKINASE [4]: 130 u/L
CREATININE [4]: 0.75 mg/dL
GLUCOSE [4]: 137.5 mg/dL
PHOSPHORUS [4]: 12.65 mg/dL
POTASSIUM [4]: 7.95 MEQ/L
SODIUM [4]: 148 MEQ/L
TOTAL PROTEIN [4]: 5.3 G/DL
